Among the data in ChEMBL document CHEMBL1148015, “Chipping at large, potent human T-cell leukemia virus type 1 protease inhibitors to uncover smaller, equipotent inhibitors” (Bioorg Med Chem Lett, 2007) are inhibition values, retold here.

Usually inhibition stands for how much of the control response was suppressed.

*1 amine or outer side, *2 acyl side, *3 side chain or, on linkers, in order; H or OH if unused. Where a SMILES comes first, the peptide text is derived from it. [ ]: non-standard residue; d: D form. The star is where a group is joined. X1 = O=C([C@@H](O)[C@H](Cc1ccccc1)N[*:1])[*:2]; Thz(5,5-Me2) = CC1(C)SCN[C@@H]1C(=O)O; X2 = N[C@@H](Cc1ccccc1)[C@H](O)C(=O)*

The test system of test [1] is Human immunodeficiency virus 1. Put plainly: Inhibition of recombinant HIV1 protease at 50 nM.
The test system of test [2] is Human T-cell leukemia virus type I. Put plainly: Inhibition of human recombinant HTLV1 protease at 100 uM.

Take `CC[C@H](C)[C@H](NC(C)=O)C(=O)N[C@H](C(=O)N[C@@H](Cc1ccccc1)[C@H](O)C(=O)N1CSC(C)(C)[C@H]1C(=O)N[C@H](C(=O)N[C@@H](CCSC)C(N)=O)C(C)C)C(C)C` (Ac-IV[X1][Thz(5,5-Me2)]VM-NH2): the inhibition in test [1] was 98%; in test [2], 87%.
The like results for `CSCC[C@H](NC(=O)[C@@H](NC(=O)[C@@H]1CCCN1C(=O)[C@@H](O)[C@H](Cc1ccccc1)NC(=O)[C@H](NC(=O)[C@H](N)CCC(N)=O)C(C)C)C(C)C)C(=O)N[C@@H](Cc1c[nH]cn1)C(=O)O` were, in that order, < 30% and < 30%.
The like results for `CC[C@H](C)[C@H](NC(C)=O)C(=O)N[C@H](C(=O)N[C@@H](Cc1ccccc1)[C@H](O)C(=O)N1CSC(C)(C)[C@H]1C(=O)N[C@H](C(=O)N[C@@H](CCSC)C(N)=O)[C@@H](C)CC)[C@@H](C)CC` (Ac-II[X1][Thz(5,5-Me2)]IM-NH2) were, in that order, 98% and 94%.
Take `CSCC[C@H](NC(=O)[C@@H](NC(=O)[C@H]1N(C(=O)[C@@H](O)[C@H](Cc2ccccc2)NC(=O)[C@@H](NC(=O)[C@H](CCC(N)=O)NC(=O)[C@@H]2CCCN2)C(C)C)CSC1(C)C)C(C)C)C(=O)N[C@@H](Cc1c[nH]cn1)C(=O)O` (H-PQV[X1][Thz(5,5-Me2)]VMH-OH): the inhibition in test [1] is 58%; in test [2] it was > 99%.
The like results for `CSCC[C@H](NC(=O)[C@@H](NC(=O)[C@H]1N(C(=O)[C@@H](O)[C@H](Cc2ccccc2)NC(=O)[C@@H](NC(=O)[C@@H](NC(C)=O)C(C)C)C(C)C)CSC1(C)C)C(C)C)C(N)=O` (Ac-VV[X1][Thz(5,5-Me2)]VM-NH2) were, in that order, 95% and 77%.
The like results for `CSCC[C@H](NC(=O)[C@@H](NC(=O)[C@@H]1CCCN1C(=O)[C@@H](O)[C@H](Cc1ccccc1)NC(=O)[C@@H](NC(C)=O)C(C)C)C(C)C)C(=O)N[C@@H](Cc1c[nH]cn1)C(=O)O` (Ac-V[X1]PVMH-OH) were, in that order, < 30% and < 30%.
The like results for `CSCC[C@H](NC(=O)[C@@H](NC(=O)[C@@H]1CCCN1C(=O)[C@@H](O)[C@H](Cc1ccccc1)NC(=O)[C@H](NC(=O)[C@@H](CCC(N)=O)NC(C)=O)C(C)C)C(C)C)C(=O)N[C@@H](Cc1c[nH]cn1)C(=O)O` were, in that order, < 30% and 49%.
For `CC(C)[C@H](NC(=O)[C@@H]1CCCN1C(=O)[C@@H](O)[C@H](Cc1ccccc1)NC(=O)[C@@H](NC(=O)[C@H](CCC(N)=O)NC(=O)[C@@H]1CCCN1)C(C)C)C(N)=O` (H-PQV[X1]PV-NH2), the inhibition in test [1] and in test [2] was < 30% in each case.
As for `CSCC[C@H](NC(=O)[C@@H](NC(=O)[C@@H]1CCCN1C(=O)[C@@H](O)[C@H](Cc1ccccc1)NC(=O)[C@@H](NC(=O)[C@H](CCC(N)=O)NC(=O)[C@@H]1CCCN1)C(C)C)C(C)C)C(=O)N[C@@H](Cc1cnc[nH]1)C(=O)O` (H-PQV[X1]PVMH-OH), the inhibition is < 30% in test [1] and 94% in test [2].
The like results for `CC[C@H](C)[C@H](NC(C)=O)C(=O)N[C@H](C(=O)N[C@@H](Cc1ccccc1)[C@H](O)C(=O)N1CSC(C)(C)[C@H]1C(=O)N[C@H](C(=O)N[C@@H](CC(C)C)C(N)=O)C(C)C)C(C)C` (Ac-IV[X1][Thz(5,5-Me2)]VL-NH2) were, in that order, 95% and 54%.
The like results for `CSCC[C@H](NC(=O)[C@@H](NC(=O)[C@@H]1CCCN1C(=O)[C@@H](O)[C@H](Cc1ccccc1)NC(=O)[C@@H](N)C(C)C)C(C)C)C(=O)N[C@@H](Cc1c[nH]cn1)C(=O)O` (H-V[X1]PVMH-OH) were, in that order, < 30% and < 30%.
The like results for `CC[C@H](C)[C@H](NC(C)=O)C(=O)N[C@H](C(=O)N[C@@H](Cc1ccccc1)[C@H](O)C(=O)N1CSC(C)(C)[C@H]1C(=O)N[C@H](C(=O)N[C@@H](CCC(N)=O)C(N)=O)C(C)C)C(C)C` (Ac-IV[X1][Thz(5,5-Me2)]VQ-NH2) were, in that order, 95% and 86%.
Turning to `CSCC[C@H](NC(=O)[C@@H](CSC)NC(=O)[C@H]1N(C(=O)[C@@H](O)[C@H](Cc2ccccc2)NC(=O)[C@@H](NC(=O)[C@H](CCC(N)=O)NC(C)=O)C(C)C)CSC1(C)C)C(N)=O`, the inhibition in test [1] is 92%; in test [2], < 30%.
The like results for `CSCC[C@H](NC(=O)[C@@H](NC(=O)[C@H]1N(C(=O)[C@@H](O)[C@H](Cc2ccccc2)NC(=O)[C@@H](NC(=O)[C@H](CCC(N)=O)NC(C)=O)C(C)C)CSC1(C)C)C(C)C)C(N)=O` (Ac-QV[X1][Thz(5,5-Me2)]VM-NH2) were, in that order, 96% and 66%.
The like results for `CC(C)[C@H](NC(=O)[C@H](CCC(N)=O)NC(=O)[C@@H]1CCCN1)C(=O)N[C@@H](Cc1ccccc1)[C@H](O)C(=O)N1CCC[C@H]1C(N)=O` (H-PQV[X1]P-NH2) were, in that order, < 30% and < 30%.
Take `CSCC[C@H](NC(=O)[C@@H](NC(=O)[C@H]1N(C(=O)[C@@H](O)[C@H](Cc2ccccc2)NC(=O)[C@@H](NC(=O)[C@H](CC(C)C)NC(C)=O)C(C)C)CSC1(C)C)C(C)C)C(N)=O` (Ac-LV[X1][Thz(5,5-Me2)]VM-NH2): the inhibition in test [1] stood at 99%; in test [2] it was 83%.
The like results for `CC[C@H](C)[C@H](NC(=O)[C@H]1N(C(=O)[C@@H](O)[C@H](Cc2ccccc2)NC(=O)[C@@H](NC(=O)[C@H](CCC(N)=O)NC(C)=O)C(C)C)CSC1(C)C)C(=O)N[C@@H](CCSC)C(N)=O` (Ac-QV[X1][Thz(5,5-Me2)]IM-NH2) were, in that order, 95% and 74%.
The like results for `CSCC[C@H](NC(=O)[C@@H](NC(=O)[C@@H]1CCCN1C(=O)[C@@H](O)[C@H](Cc1ccccc1)NC(C)=O)C(C)C)C(=O)N[C@@H](Cc1c[nH]cn1)C(=O)O` (Ac-[X1]PVMH-OH) were, in that order, < 30% and < 30%.
The like results for `CSCC[C@H](NC(=O)[C@@H](NC(=O)[C@H]1N(C(=O)[C@@H](O)[C@H](Cc2ccccc2)NC(=O)[C@@H](NC(=O)[C@H](C)NC(C)=O)C(C)C)CSC1(C)C)C(C)C)C(N)=O` (Ac-AV[X1][Thz(5,5-Me2)]VM-NH2) were, in that order, 96% and 56%.
As for `CSCC[C@H](NC(=O)[C@@H](NC(=O)[C@@H]1CCCN1C(=O)[C@@H](O)[C@H](Cc1ccccc1)NC(=O)[C@@H](NC(=O)[C@H](CCC(N)=O)NC(=O)[C@@H]1CCCN1)C(C)C)C(C)C)C(N)=O` (H-PQV[X1]PVM-NH2), the inhibition was < 30% in test [1] and 86% in test [2].
The like results for `CC[C@H](C)[C@H](NC(=O)[C@@H](NC(=O)[C@H]1N(C(=O)[C@@H](O)[C@H](Cc2ccccc2)NC(=O)[C@@H](NC(=O)[C@@H](NC(C)=O)[C@@H](C)CC)C(C)C)CSC1(C)C)C(C)C)C(N)=O` (Ac-IV[X1][Thz(5,5-Me2)]VI-NH2) were, in that order, 97% and 78%.
The like results for `CSCC[C@H](NC(=O)[C@@H](NC(=O)[C@H]1N(C(=O)[C@@H](O)[C@H](Cc2ccccc2)NC(=O)[C@@H](NC(=O)[C@H](CCC(N)=O)NC(C)=O)C(C)C)CSC1(C)C)[C@@H](C)O)C(N)=O` (Ac-QV[X1][Thz(5,5-Me2)]TM-NH2) were, in that order, 78% and < 30%.
The like results for `CC[C@H](C)[C@H](NC(=O)[C@H](CCC(N)=O)NC(C)=O)C(=O)N[C@@H](Cc1ccccc1)[C@H](O)C(=O)N1CSC(C)(C)[C@H]1C(=O)N[C@H](C(=O)N[C@@H](CCSC)C(N)=O)C(C)C` (Ac-QI[X1][Thz(5,5-Me2)]VM-NH2) were, in that order, 95% and 85%.
In the case of `CSCC[C@H](NC(=O)[C@H](CC(C)C)NC(=O)[C@H]1N(C(=O)[C@@H](O)[C@H](Cc2ccccc2)NC(=O)[C@@H](NC(=O)[C@H](CCC(N)=O)NC(C)=O)C(C)C)CSC1(C)C)C(N)=O` (Ac-QV[X1][Thz(5,5-Me2)]LM-NH2), the inhibition came to 84% in test [1] and 30% in test [2].
The like results for `CC[C@H](C)[C@H](NC(C)=O)C(=O)N[C@H](C(=O)N[C@@H](Cc1ccccc1)[C@H](O)C(=O)N1CSC(C)(C)[C@H]1C(=O)N[C@H](C(=O)N[C@@H](Cc1ccccc1)C(N)=O)C(C)C)C(C)C` (Ac-IV[X1][Thz(5,5-Me2)]VF-NH2) were, in that order, 98% and 84%.
The like results for `CSCC[C@H](NC(=O)[C@@H](NC(=O)[C@H]1N(C(=O)[C@@H](O)[C@H](Cc2ccccc2)NC(=O)[C@H](CC(C)C)NC(=O)[C@H](CCC(N)=O)NC(C)=O)CSC1(C)C)C(C)C)C(N)=O` (Ac-QL[X1][Thz(5,5-Me2)]VM-NH2) were, in that order, 83% and 54%.
The like results for `CSCC[C@H](NC(=O)[C@@H](NC(=O)[C@H]1N(C(=O)[C@@H](O)[C@H](Cc2ccccc2)NC(=O)[C@@H](NC(=O)[C@H](Cc2ccccc2)NC(C)=O)C(C)C)CSC1(C)C)C(C)C)C(N)=O` (Ac-FV[X1][Thz(5,5-Me2)]VM-NH2) were, in that order, 95% and 74%.
As for `CSCC[C@H](NC(=O)[C@@H](NC(=O)[C@H]1N(C(=O)[C@@H](O)[C@H](Cc2ccccc2)NC(=O)[C@H](CSC)NC(=O)[C@H](CCC(N)=O)NC(C)=O)CSC1(C)C)C(C)C)C(N)=O` (Ac-QC(Me)[X1][Thz(5,5-Me2)]VM-NH2), the inhibition in test [1] was determined as 96%; in test [2] it was 51%.
Consider `CSCC[C@H](NC(=O)[C@@H](NC(=O)[C@@H]1CCCN1C(=O)[C@@H](O)[C@@H](N)Cc1ccccc1)C(C)C)C(=O)N[C@@H](Cc1c[nH]cn1)C(=O)O` (X2-PVMH-OH), for which the inhibition in test [1] and in test [2] was < 30% throughout.
For `CC[C@H](C)[C@H](NC(C)=O)C(=O)N[C@H](C(=O)N[C@@H](Cc1ccccc1)[C@H](O)C(=O)N1CSC(C)(C)[C@H]1C(=O)N[C@H](C(=O)N[C@H](C(N)=O)C(C)C)C(C)C)C(C)C` (Ac-IV[X1][Thz(5,5-Me2)]VV-NH2), the figures for the inhibition in test [1] and in test [2] were 96% and 70%, respectively.
